Assay results as given in patent EP2397149A1 (Hil-Invent Ges.M.B.H., priority 2010, dated 2011).
Read-outs that look alike come from different tables or passages of the source. Starred links: 1 amine or outer side, 2 acyl side, 3 side chain; linkers in the order of their positions; H or OH if unused. Positions of bridges follow the written chain, without caps; N, C: chain ends. Non-standard residues stand in square brackets, D forms with d. Residues, ends and D or L forms follow the SMILES beside them. Chains are numbered I, II in the order given. Actinocin(9to1) = Cc1c2oc3c(C)ccc(C(=O)[*:1])c3nc-2c(C(=O)[*:2])c(N)c1=O; NMeV = CN[C@H](C(=O)O)C(C)C; Sar = CNCC(=O)O

Key:
[1] = tested on: colon cancer cell line HCT116; assay: Sensitivity of isogenic HCT116 with or without p53 deletion; assay type: cell-based
[2] = tested on: engrafted B-CLL mice (CD5/CD19 cells)
Method: (§1) The original Eµ-TCL1a transgenic mice which were generously provided by C. Croce (Ohio) have been back-crossed for > 9 generations to C57BL/6 mice. Mice were killed at stated ages, or when signs of illness developed, and samples for histology, flow cytometry, and miRNA isolation were collected. The tumor load in all lymphoid organs was assessed by flow cytometry following staining for the surface markers CD19, CD5, and IgM. Approval from the Austrian Animal Ethics committee was obtained prior to performing the experiments. Engrafted mice were produced by injecting 3 x 10^6 lymphocytes of a leukemic Eµ-TCL1a transgenic mouse into 30 Black 6 mice from Charles River Laboratories, Sulzfeld, Germany.
First a treatment study included 10 mice.
To assess tumour load development after treatment blood samples were collected from the tail vein (Fig. 4).

B-CLL cells = assay: IC50 determination (XTT dye, 48 h); assay type: cell-based, human
Method: 1.5 x 10^6 B-CLL cells and 0.4 x 10^6 CEM-C7H2 cells per well were incubated with different concentrations of the respective substance (0,2, 0,5, 1, 2, 5, 10, 20 µM) and incubated for 48 h. After this XTT-dye solution was added as described above and absorption was measured at 450 nm with 655 nm as reference wavelength. Concentrations that led to a 50 % metabolism reduction were monitored as IC50 value.
Finally, the substances were tested for their toxicity in cell lines from different parts of the human body such as liver (HepG2), kidney (HEK-293), lung (SHP-77), skin keratinocytes (WS-1) and in human umbilical vein endothelial cells from 3 different donors. […] For these substances the mean IC50 (48h) in 4 B-CLL cells samples from 4 different donors was determined and the substances were numbered beginning with the lowest IC50 in B-CLL cells.

[3] = tested on: engrafted CLL mice (CD5/CD19 cells); assay: Treatment study 02: reduced actinomycin D concentrations in murine B-CLL model; assay type: in vivo
Method: as §1
In example 1 a treatment schedule of 0.06 mg/kg daily for two weeks was used. […] To assess the tumour load blood samples were consecutively taken from the tail vein.

[4] = tested on: engrafted wildtype (C57BL/6) mice (CD5+/CD19+ cells); assay: Treatment study 03: head to head comparison of actinomycin D and fludarabine; assay type: in vivo; details: for 50 % survival time after start of treatment / tumour load reduction: actinomycin D 0.06 mg/kg daily for 14 days, fludarabine 34 mg/kg for 5 days; for tumour load reduction: day 22 after treatment start, vs untreated mice
Method: (§2) Viability was measured using flow-cytometry (AnnexinV/7-AAD,-/-). […] The length of the box corresponds to the interquartile range (IQR) and is the difference between the 75th and 25th percentiles. The horizontal line in the box is the median. […] Viability of B-CLL cells was assessed using a flow-cytometer (Annex-inV/7-AAD -/-). The length of the box corresponds to the interquartile range (IQR) and is the difference between the 75th and 25th percentiles. The horizontal line in the box is the median. […] Day zero is the day of engraftment with 3x10^6 lymphocytes derived from TCL1 transgenic mice with overt leukemia. […] Blood samples were collected from the tail vein of the respective animal and whole blood was analysed for CD5/CD19 positive cells using a flow-cytometer. […] Dashed line is 0.04 mg/kg and black line is 0.05 mg/kg daily for two weeks.
as §1
At day 22 after treatment start tumour load was assessed compared to that of the tumour load of untreated mice.

[5] = tested on: B-CLL cells bearing the chromosomal aberration del(17p)13; assay: Viability / apoptosis of del(17p)13 B-CLL cells (flow cytometry, AnnexinV/7-AAD); assay type: cell-based, human; details: for viability reduction: 160 nM
Method: as §2
The supplied substances were solved in 100 µl medium at 37°C 90 min on a rotation shaker and transferred to a 96-well plated. Then 100µl medium containing 1.5 x 10^6 B-CLL cells was added. Final concentration of the substances was 20 µM. After a incubation time of 48 h 50 µl XTT-dye was added and absorption measured as above. […] Only substances that reduced the cell metabolism/dye development > 50 % were counted. The reason for this higher cut off value is the low proliferative activity of B-CLL cells who are mainly in Go arrest. Positive substances were double checked with Annex-inV/7-AAD apoptosis/necrosis staining in CD19+/CD5+ positive cells on a flow cytometer.

[6] = tested on: B-CLL cells of patients with no p53 aberrations; assay: Influence of the p53 inhibitor pifithrin-alpha on drug susceptibility (flow cytometry, AnnexinV/7-AAD); assay type: cell-based, human
Method: as §2
B-CLL cells of patients with no p53 aberrations were treated with 160 nM actinomycin w or w/o 30 µM pifithrin-alpha.

## Cc1c2oc3c(C)ccc(C(=O)N[C@@H]4C(=O)N[C@H](C(C)C)C(=O)N5CCC[C@H]5C(=O)N(C)CC(=O)N(C)[C@@H](C(C)C)C(=O)O[C@@H]4C)c3nc-2c(C(=O)N[C@@H]2C(=O)N[C@H](C(C)C)C(=O)N3CCC[C@H]3C(=O)N(C)CC(=O)N(C)[C@@H](C(C)C)C(=O)O[C@@H]2C)c(N)c1=O [actinomycin D] (I: T[dV]P[Sar][NMeV] / II: T[dV]P[Sar][NMeV]; ester I:1-I:C, II:1-II:C; linker I:N-II:N via Actinocin(9to1))
[1]
  effect of p53 deletion on actinomycin D susceptibility: no effect
[2]; 0,06 mg/kg daily for two weeks vs PBS
  survival difference to the mock treated animals (Fig. 3): highly significant
[2]; CD5/CD19 counts back at the initial value at day 135
  time after the initial therapy until retreatment: 85 days
[2]; treatment at day 50, three surviving animals, tail vein blood
  CD5/CD19 count after treatment: A reduction of the CD5/CD19 count can be observed in all three animals
B-CLL cells; 4 B-CLL cells samples from 4 different donors, 48 h, in vitro, read-out: mean IC50 (48h)
  IC50: 0.08 µM
[3]; 0.05 mg/kg or 0.04 mg/kg daily for two weeks, two mice each, start 47 days after engraftment
  tumour cells after treatment: severe reduction of tumour cells
[3]; 0.05 or 0.04 mg/kg daily for two weeks, after first treatment
  time until tumour load increased to the initial values after the first treatment: 46 days
[3]; 0.05 or 0.04 mg/kg daily for two weeks, after retreatment
  time until CD5/CD19 counts increased again after the second treatment: 44 days
[4]; 22 days after treatment start
  tumour load (CD5+/CD19+ cell count), Fig. 6: highly significant tumour load reduction
[4]
  50 % survival time after start of treatment: 103 days
  tumour load reduction: more than 80%
[5]; 20 nM, 48 h, 4 p53 deleted, fludarabine resistant B-CLL patients, p < 0.001
  viability (Fig. 1): significant viability reduction
[5]; 20 nM, within 48 h, del(17p)13 B-CLL cells (Fig. 1)
  apoptosis induced in % of B-CLL cells: > 80%
[5]; del(17p)13 B-CLL samples derived from peripheral blood
  viability reduction: > 45%
[5]; one del(17p)13 sample derived from the bone marrow
  viability reduction: 38%
[5]; 20 µM, three B-CLL samples of patients with del(17p)13
  apoptosis induction: able to induce apoptosis in all three B-CLL cells samples

## CN1CC[C@H](c2c(O)cc(O)c3c(=O)cc(-c4ccccc4Cl)oc23)[C@H](O)C1 [flavopiridol]
[6]; with or without 30 µM pifithrin-alpha, 48 h, 160 nM actinomycin (text; Fig. 2: 20 nM), 50 nM flavopiridol, 10 µM fludarabine
  synergism with pifithrin-alpha: synergistic with pifithrin-alpha

## Nc1nc(F)nc2c1ncn2[C@@H]1O[C@H](CO)[C@@H](O)[C@@H]1O [fludarabine]
B-CLL cells; Homo sapiens, B-CLL, read-out: double IC50 determined for fludarabine, printed as the double IC50, unclear whether 3µM is the IC50 or its double
  IC50: 3 µM
[4]
  50 % survival time after start of treatment: 47 days
  tumour load reduction: 20%

## Cc1ccc(C(=O)Cn2c3c(sc2=N)CCCC3)cc1 [pifithrin-alpha]
[6]; 30 µM, alone
  effect of pifithrin-alpha alone on viability of CLL cells: no effect on viability
